From patent US20180161338A1, “RETOSIBAN FOR THE TREATMENT OF PRE-TERM LABOUR” (priority 2014, published 2018)
Bridge positions count the residues as written; N and C are the ends. Square brackets hold non-standard residues; d marks the D form. Peptide text beside a SMILES is read from it. Orn = NCCC[C@H](N)C(=O)O; Mpa = O=C(O)CCS

Key:
[1] = system: asymptomatic women with a short cervix pregnant with a single foetus; conditions: daily administration; cited from earlier work
Human myometrial strips = assay: Maximal contractile responses to KCl and oxytocin of myometrial strips cultured under low or high stretch; assay type: cell-based; conditions: for median fold change with retosiban, maximal response to KCl / median fold change with retosiban, maximal response to oxytocin: retosiban versus vehicle
Procedure: Human myometrial strips (obtained from non-labouring patients undergoing routine elective caesarean section at term) were cultured in medium (phenol red free DMEM supplemented with 10% charcoal stripped foetal calf serum, 2 mM L-glutamine and antibiotics) in an incubator (37° C., humidified 5% CO2) under conditions of low stretch (0.6 g mass) or high stretch (2.4 g mass). Half of the strips in both the low and high stretch groups were incubated with […] retosiban (diluted in DMSO). The remaining strips (paired samples from the same patient) were incubated DMSO.
After 20-24 hours incubation, myometrial contractility of the strips was studied as described previously (J Physiol 2012; 590(Pt9): 2081-2093). Briefly, tension was initially set at 2 g for all strips. Strips were washed with fresh Krebs after 15 and 30 min and the tension reset to 2 g. After a further hour of washes (every 15 min), the issue was treated with 50 mM KCl (50 mM, 5-7 min). This was washed, the tissue allowed to recover and then a cumulative concentration response curve to oxytocin (up to 100 nM) was obtained. Maximal responses to KCl and oxytocin were normalized to strip wet weight. The mean normalized responses of duplicate strips were calculated for the four different groups (low stretch with retosiban, low stretch with vehicle, high stretch with retosiban, high stretch with vehicle). Effects were expressed as fold change i.e. the ratio of normalized responses in the experimental and control conditions from different strips obtained from the same person. pEC50 values were calculated using analysis of the area under the curve for each concentration of oxytocin.
Since the data were expressed as fold changes, all ratios were log transformed and normal distribution following log transformation was assessed using the Sharpiro-Wilk test. The null hypothesis was that there was no change in the mean normalized responses with a given intervention. […] Continuous associations were assessed using linear regression of log transformed fold changes. For the analysis of pEC50 Student's paired t-test was used.

[2] = system: pre-term labour in singleton pregnancies; conditions: cited from earlier work
[3] = system: women pregnant with twins; conditions: prophylactic administration; cited from earlier work
[4] = system: pre-term labour in twin pregnancies; conditions: isolated reports, not placebo controlled; cited from earlier work

CC(=O)[C@H]1CC[C@H]2[C@@H]3CCC4=CC(=O)CC[C@]4(C)[C@H]3CC[C@]12C [vaginal progesterone, progesterone]
reduction of the frequency of birth before 34 weeks of gestation [1]: more than 40%

CC[C@H](C)[C@@H]1C(=O)N[C@H](C2Cc3ccccc3C2)C(=O)N1[C@@H](C(=O)N1CCOCC1)c1coc(C)n1 [retosiban, (3R,6R)-3-(2,3-dihydro-1H-inden-2-yl)-1-[(1R)-1-(2-methyl-1,3-oxazol-4-yl)-2-(morpholin-4-yl}-2-oxoethyl]-6-[(1S)-1-methylpropyl]-2,5-piperazinedione]
median fold change with retosiban, maximal response to KCl (Human myometrial strips; high stretch (2.4 g), n=12): 0.74
median fold change with retosiban, maximal response to oxytocin (Human myometrial strips; high stretch (2.4 g), n=12): 0.71
median fold change with retosiban, maximal response to KCl (Human myometrial strips; low stretch (0.6 g), n=12): 1.00
median fold change with retosiban, maximal response to oxytocin (Human myometrial strips; low stretch (0.6 g), n=12): 0.97
relationship between the effect of stretch and the effect of retosiban on responses to KCl and oxytocin (Human myometrial strips; per patient, FIG. 3): the greater was the reduction in response induced by retosiban
fold change with stretch (high stretch compared with low stretch), maximal response to KCl (Human myometrial strips; strips incubated with 1 mM retosiban 20-24 h, retosiban removed, 50 mM KCl, n=12): 1.14
fold change with stretch (high stretch compared with low stretch), maximal response to oxytocin (Human myometrial strips; strips incubated with 1 mM retosiban 20-24 h, retosiban removed, oxytocin up to 100 nM, n=12): 1.14
increase in days to delivery relative to placebo (mean) ([2]; phase II clinical study): 8.2 days
response rate or percentage of women achieving uterine quiescence ([2]; ≤4 contractions/h with no change in cervical dilation >1 cm at 5-6 h, depending upon route of administration/dose): 50-57%

CCCCCC(=O)O[C@]1(C(C)=O)CC[C@H]2[C@@H]3CCC4=CC(=O)CC[C@]4(C)[C@H]3CC[C@@]21C [17-α hydroxyprogesterone caproate]
reduction in the frequency of pre-term birth [3]: no reduction

CCOc1ccc(C[C@H]2NC(=O)CCSSC[C@@H](C(=O)N3CCC[C@H]3C(=O)N[C@@H](CCCN)C(=O)NCC(N)=O)NC(=O)[C@H](CC(N)=O)NC(=O)[C@H]([C@@H](C)O)NC(=O)[C@H]([C@@H](C)CC)NC2=O)cc1 [atosiban] ([Mpa][dY](Et)ITNCP[Orn]G-NH2; disulfide 1-6)
treatment of pre-term labour in twin pregnancies [4]: used successfully
